These results are taken from patent US9029095B2, “Method and kits for determining platelet susceptibility to activation in a patient” (Institut National de la Sante et de la Recherche Medicale …, priority 2010, dated 2015).

The subject of assay [1] is ADP-induced GPVI dimerization. The assay is described as follows: ADP-induced 9E18 binding to platelets (PRP) of patients treated with P2Y12 antagonists, ex vivo. Format: in vivo, human. The text has this: FIG. 3: 9E18 as a marker of platelet activation and reactivity: Blood samples were obtained from (A) a cohort of patients with coronary artery disease admitted for percutaneous coronary intervention (n=45) and (B) healthy volunteers (n=40). For each subject, GPVI dimerization, represented by the extent of 9E18 positive platelets, is plotted against P-selectin exposure. Blood samples were obtained from (C) patients treated by prasugel and (D) healthy volunteers. For each subject the binding of FITC-coupled 9E18 to platelets was measured by flow cytometry after incubation of the PRP with buffer or ADP (10 μM) for 20 min.
FIG. 4: 9E18 as a marker of platelet activation and reactivity A: 9E18 binding to platelets and P-selectin exposure were measured in blood samples (PRP) obtained from a cohort of patients with CAD admitted for percutaneous coronary intervention (n=45). B: ADP-induced binding of 9E18 to platelets was measured on blood samples (PRP) from normal subjects and patients with CAD treated by clopidogrel (n=26). Results are expressed as the ratio between the levels of 9E18 binding to ADP-stimulated/non-stimulated samples×100.C: ADP-induced binding to platelets of patients treated by clopidogrel was plotted against corresponding data of the VASP phosphorylation assay.
Blood samples were obtained from a cohort of patients with coronary artery disease (CAD) referred to the department of cardiology of Bichat hospital for percutaneous coronary intervention (BIOCORE-2 study, Clinical Trial Registration—URL: http://clinicaltrials.gov/ct2/show/NCT01186666?term=NCT01186666&rank=1). The study complies with the Declaration of Helsinky and was approved by the institutional ethics committee. All of the patients provided written informed consent. Blood was drawn on 0.109M citrate the day after percutaneous coronary intervention (PCI). PRP, a waste of the established protocol, was used for this study. Analysis was performed less than one hour after blood sampling, on PRP using FITC-coupled 9E18, 3J24 or anti-P-selectin. […]

Assay [2] has as its system GPVI dimerization on platelets. The assay is described as follows: Effect of agonists and inhibitors on 9E18 binding to platelets (GPVI dimerization), flow cytometry. It is filed as cell-based, human. The settings on record: for effect on 9E18 binding / GPVI dimerization of activated platelets / effect on 9E18 binding to resting as well as activated platelets: ADP-; for effect on 9E18 binding / GPVI dimerization of activated platelets: TRAP- or PMA-activated platelets; for effect on 9E18 binding to resting as well as activated platelets: TRAP- or PMA-activated washed platelets.

The test system of the next assay is FcRγ. The assay is described as follows: FcRγ phosphorylation in activated platelets. It is filed as cell-based, human. The settings on record: conditions leading to GPVI dimerization.
The subject of assay [3] is P-selectin exposure on platelets. The assay is described as follows: P-selectin exposure on platelets, flow cytometry. Format: cell-based, human. The note with it: washed platelets. In general terms: In flow cytometry, cells or beads pass a laser one at a time.
The subject of assay [4] is platelet adhesion to immobilized collagen. As to the kind of experiment: GPVI-dependent platelet adhesion to immobilized collagen (static). It is filed as cell-based, human. The settings on record: PMA-treated platelets.
Assay [5] has as its target T1, GPVI dimers on shear-activated platelets (Homo sapiens, UniProt Q9HCN6).
T1 construct: Blood was obtained from healthy volunteers; endogenous in cells; host or cells: human platelets (whole blood, PRP, washed platelets or lysates) from healthy volunteers or coronary artery disease patients
T1 sequence (Q9HCN6 21-339): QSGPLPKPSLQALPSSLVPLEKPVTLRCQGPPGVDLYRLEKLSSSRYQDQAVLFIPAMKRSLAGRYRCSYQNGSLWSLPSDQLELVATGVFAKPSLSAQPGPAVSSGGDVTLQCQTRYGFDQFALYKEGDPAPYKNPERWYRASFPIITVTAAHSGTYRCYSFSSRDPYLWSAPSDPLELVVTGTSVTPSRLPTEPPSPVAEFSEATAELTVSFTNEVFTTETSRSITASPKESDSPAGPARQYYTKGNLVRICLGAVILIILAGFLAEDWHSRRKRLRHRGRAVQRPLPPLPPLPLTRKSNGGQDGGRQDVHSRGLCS
T1 sequence (P30273 19-86 partner): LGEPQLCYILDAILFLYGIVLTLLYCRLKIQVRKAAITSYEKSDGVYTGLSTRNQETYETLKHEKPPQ
The assay is described as follows: Shear-induced platelet activation, 9E18 binding. It is filed as cell-based. The note with it: washed platelets.

The target of the next assay is collagen. As to the kind of experiment: Binding of recombinant soluble GPVI to collagen (purified proteins, microtitration wells). The note with it: Example 1. The arrangement: species or system equine.
Assay [6] has as its target T2, 9E18 binding to immobilized GPVI-Fc (Homo sapiens, UniProt Q9HCN6).
T2 construct: Recombinant soluble GPVI was obtained as the extracellular domain of human GPVI; made in house; host or cells: HEK cells
T2 sequence (Q9HCN6 21-267 limits assumed): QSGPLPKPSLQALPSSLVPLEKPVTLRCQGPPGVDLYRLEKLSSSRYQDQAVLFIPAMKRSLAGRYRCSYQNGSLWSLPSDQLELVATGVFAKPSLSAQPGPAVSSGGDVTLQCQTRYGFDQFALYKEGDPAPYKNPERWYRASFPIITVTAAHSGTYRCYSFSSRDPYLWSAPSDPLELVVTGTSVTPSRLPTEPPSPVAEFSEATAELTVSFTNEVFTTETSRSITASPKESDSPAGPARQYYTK
As to the kind of experiment: Competition: binding of 9E18 to immobilized GPVI-Fc in presence of soluble GPVI.

The target in assay [7] is T3, 9E18 binding to stimulated platelets (Homo sapiens, UniProt Q9HCN6).
T3 construct: Blood was obtained from healthy volunteers; endogenous in cells; host or cells: human platelets (whole blood, PRP, washed platelets or lysates) from healthy volunteers or coronary artery disease patients
T3 sequence (Q9HCN6 21-339): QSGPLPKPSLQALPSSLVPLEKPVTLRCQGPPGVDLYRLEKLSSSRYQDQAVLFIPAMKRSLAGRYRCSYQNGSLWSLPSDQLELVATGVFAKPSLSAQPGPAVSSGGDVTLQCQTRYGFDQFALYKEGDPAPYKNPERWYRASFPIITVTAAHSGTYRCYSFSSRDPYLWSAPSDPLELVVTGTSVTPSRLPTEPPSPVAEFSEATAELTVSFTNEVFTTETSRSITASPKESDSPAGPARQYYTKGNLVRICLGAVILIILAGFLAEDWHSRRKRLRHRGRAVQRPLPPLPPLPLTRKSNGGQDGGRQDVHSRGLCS
T3 sequence (P30273 19-86 partner): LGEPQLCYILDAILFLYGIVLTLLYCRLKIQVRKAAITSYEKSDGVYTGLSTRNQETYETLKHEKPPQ
As to the kind of experiment: Inhibition of 9E18 binding to stimulated platelets by soluble GPVI or IV.3. It is filed as cell-based. As for the experimental part: Resting and activated platelets (5×10^7 mL^−1 in whole blood or PRP or buffer) were incubated with FITC-coupled anti-GPVI or P-selectin antibodies for 20 min and, when needed fixed with 1% PFA. Samples were analyzed by flow cytometry using Epics XL.MCL (Coulter) or LSRII (Becton Dickinson Biosciences) apparatus. Platelet glycoprotein quantification was performed using the quantification kit, Platelet GP screen (Byocytex, Marseille, France).

“And” between values parts separate entries of the source, which are not always exact repeats. Equal entries are not always repeated. “Also recorded” adds a separate entry of the source. Where two headings read alike, the source gives them in different places.

As to `COC(=O)[C@H](c1ccccc1Cl)N1CCc2sccc2C1` [clopidogrel, (+)-(S)-methyl 2-(2-chlorophenyl)-2-(6,7-dihydrothieno[3,2-c]pyridin-5(4H)-yl)acetate], the “ADP-induced 9E18 binding response in treated patients vs normal subjects” value in assay [1] (75 mg, PRP) was “highly significant reduction”.

Consider apyrase, for which, in [2] (ADP), the “effect on ADP-induced 9E18 binding to platelets” value was “fully prevented” and the “inhibition of ADP-induced binding of 9E18” value amounted to 85%. Besides, the “reduction of TRAP-induced binding of 9E18” value in [2] turned out to be 75%. Besides, the “reduction of TRAP-induced binding of 9E18” value in assay [2] (listed as Apyrase) amounted to 50%.

As for `CCCCC[C@H](O)/C=C/[C@H]1[C@H](O)CC(=O)[C@@H]1CCCCCCC(=O)O` [PGE1, prostaglandin E1], the “effect on 9E18 binding to ADP- or TRAP-stimulated platelets” value in assay [2] (ADP or TRAP) is reported as “dropped to basal level”. Moreover, in [2], the “effect on 9E18 binding / GPVI dimerization of activated platelets” value is on record as “drastically reduced; also recorded: inhibited” and the “effect on 9E18 binding to resting as well as activated platelets” value is “reduced”. Moreover, the “effect on PMA-induced 9E18 binding to platelets” value in [2] (PMA) is “greatly decreased”. In addition, the “effect on 9E18 binding in the absence of agonist” value in assay [2] (preincubation, no agonist) was “lowered”.

Consider `Nc1ncnc2c1ncn2[C@@H]1O[C@H](COP(=O)(O)OP(=O)(O)O)[C@@H](O)[C@H]1O` [ADP, adenosine diphosphate], for which the “FcRγ phosphorylation in activated platelets” value with FcRγ is given as “not phosphorylated”. Besides, the “surface exposure of P-selectin induced by agonist” value in assay [3] was “induced surface exposure of P-selectin”. Further, the “effect of agonist on binding of 9E18 to platelets” value in assay [2] is “increased”.

In the case of `Cc1ccc(-c2nn(C(C)(C)C)c3ncnc(N)c23)cc1` [PP1], the “level of PMA-induced 9E18 binding in presence of inhibitor” value in [2] (20 μM inhibitor, PMA-treated platelets) is 28.4%.

Regarding `CCCCCCCCCCCCCC(=O)O[C@@H]1[C@@H](C)[C@@]2(O)[C@@H](C=C(CO)C[C@]3(O)C(=O)C(C)=C[C@@H]23)[C@@H]2C(C)(C)[C@]12OC(C)=O` [PMA], the “effect on GPVI-dependent platelet adhesion to immobilized collagen” value in [4] is reported as “increase”. Besides, the “FcRγ phosphorylation in activated platelets” value in the assay on FcRγ is reported as “not phosphorylated”. Further, the “effect of agonist on binding of 9E18 to platelets” value in assay [2] is “significantly increased”. Also, the “level of 9E18 binding to PMA-treated platelets” value in [2] (PMA alone) was 31.5±4% and 27.7%.

For the molecule `CNC[C@H](O)c1ccc(O)c(O)c1` [Epinephrine], in assay [2], the “factor of increase of 9E18 binding to platelets” value came to 1.5.

Consider `CC(=O)Oc1cc2c(s1)CCN(C(C(=O)C1CC1)c1ccccc1F)C2` (stereo not shown) [prasugrel], for which the “ADP-induced increase of 9E18 binding to platelets of treated patients” value in assay [1] (PRP, ADP 10 μM, good responders by VASP test) is given as “not to platelets of 9 patients treated by prasugrel; also recorded: blocked”. Also, the “9E18 binding and VASP phosphorylation in response to ADP” value in assay [1] (one treated patient (low response)) is listed as “remained increased”.

On to “vWF: von Willebrand factor added to washed platelets”, for which the “effect of addition on shear-induced platelet aggregation and level of 9E18 binding” value in assay [5] was “parallel increase”.

For `CSc1nc(N)c2ncn([C@@H]3O[C@H](COP(=O)(O)O)[C@@H](O)[C@H]3O)c2n1` [2MeSAMP], in assay [2], the “effect on 9E18 binding to ADP- or TRAP-stimulated platelets” value is on record as “inhibited; also recorded: prevented” and the “effect on ADP-induced 9E18 binding to platelets” value is recorded as “blocked”.

Turning to `CC(=O)N[C@@H](C(=O)O)C(C)(C)SN=O` (racemic) [SNAP], in assay [2], the “effect on 9E18 binding / GPVI dimerization of activated platelets” value is “same effect; also recorded: inhibited” and the “effect on 9E18 binding to resting as well as activated platelets” value is “inhibited”.

As to `COc1ccc2c(c1)c(CC(=O)O)c(C)n2C(=O)c1ccc(Cl)cc1` [indomethacine, Indomethacin], the “effect on 9E18 binding to ADP- or TRAP-stimulated platelets” value in assay [2] (ADP or TRAP) was “no effect”.

B1: GPVI-His: extracellular domain of human GPVI fused to a poly-His Tag, monomeric (protein, UniProt Q9HCN6 21-267, looked up)
extracellular domain: QSGPLPKPSLQALPSSLVPLEKPVTLRCQGPPGVDLYRLEKLSSSRYQDQAVLFIPAMKRSLAGRYRCSYQNGSLWSLPSDQLELVATGVFAKPSLSAQPGPAVSSGGDVTLQCQTRYGFDQFALYKEGDPAPYKNPERWYRASFPIITVTAAHSGTYRCYSFSSRDPYLWSAPSDPLELVVTGTSVTPSRLPTEPPSPVAEFSEATAELTVSFTNEVFTTETSRSITASPKESDSPAGPARQYYTK
modifications: extracellular domain poly-His tag
notes: extracellular domain of human GPVI fused to a poly-His Tag, monomeric
As a reminder, the IC50 is the concentration at which inhibition is half-maximal. In general, Kd refers to the constant that tells how readily two partners part at equilibrium. For B1, at collagen, the affinity for collagen amounted to 14.7 ± 3.27 µg/mL. Besides, the “IC50, inhibition of 9E18 binding to immobilized GPVI-Fc by soluble GPVI” value in assay [6] turned out to be 3.7 ± 2.2 µg/mL. In addition, the “inhibition of 9E18 binding to GPVI-Fc” value in assay [6] (GPVI-His up to 10 μg·mL^−1) came to 70%. Besides, the IC50 in assay [6] (molar value in brackets, Example 1, read-out: IC50, inhibition of 9E18 binding to immobilized GPVI-Fc by soluble GPVI) worked out at 74 nM. Further, the Kd in assay [6] (value in brackets after IC50, Example 2, read-out: Kd from competition of 9E18 binding to GPVI-Fc) worked out at 78 nM. Further, the figures for the “inhibition of 9E18 binding to stimulated platelets” value in [7] and in assay [7] (listed as monomers) were “not” and “not by monomers”, respectively.
